According to paper PMC9598282 (Antibiotics, 2022):
Where “and” joins values, the source holds several entries; their conditions need not be identical. Equal entries are not always repeated. Where two headings read alike, the source gives them in different places. Values belong to the compound of their own block, whether it stands above or below them.

How the values were obtained:
P. aeruginosa 114228 [1] = experiment: microbe, parasite or virus in culture; format: cell-based, Pseudomonas aeruginosa; details: one value per checkerboard plate
Procedure: (§1) The adjuvant properties of the guanidinylated polymyxins were evaluated using the checkerboard assay as previously described. The bacterial solution was prepared as described in the antimicrobial susceptibility assay. The antibiotic of interest and the adjuvant were serially diluted two-fold along the x- and y-axis on a 96-well plate, respectively, resulting in varying concentrations of both agents in each well. Equal volumes of bacterial solution were added to the designated wells. The well consisting of bacterial solution served as the positive control, while the wells containing only media served as the negative control. The plate was then incubated at 37 °C for 18 h. After incubation, an Emax Plus microplate reader (Molecular Devices, Union City, CA, USA) was used to measure the OD at a wavelength of 590 nm to confirm the turbidity. The fractional inhibitory concentration (FIC) index was then determined to establish the relationship between the antibiotic and adjuvant. The FIC index corresponds to the sum of the FICs of the antibiotic and adjuvant. The FIC of each agent is calculated by dividing its MIC when it is used in combination by its MIC when used alone. FIC indices ≤0.5, 0.5 < x ≤ 4 and >4 indicate synergy, additivity and antagonism, respectively.

P. aeruginosa PAO1 [2] = experiment: microbe, parasite or virus in culture; format: cell-based, Pseudomonas aeruginosa
Procedure: as §1

[3] = tested on: P. aeruginosa P264-104354; experiment: Checkerboard assay; format: cell-based, Pseudomonas aeruginosa; details: Pseudomonas aeruginosa, P264104354, agent alone, one value per checkerboard plate
Procedure: as §1

P. aeruginosa 101243 [4] = experiment: Checkerboard assay; format: cell-based, Pseudomonas aeruginosa; details: one value per checkerboard plate
Procedure: as §1

P. aeruginosa P259-96918 [5] = experiment: Checkerboard assay; format: cell-based, Pseudomonas aeruginosa; details: Pseudomonas aeruginosa, P25996918; agent alone, one value per checkerboard plate
Procedure: as §1

[6] = tested on: P. aeruginosa P262-101856; experiment: Checkerboard assay; format: cell-based, Pseudomonas aeruginosa; details: one value per checkerboard plate
Procedure: as §1

E. coli 107115 [7] = experiment: microbe, parasite or virus in culture; format: cell-based, Escherichia coli; details: Escherichia coli, 107115, agent alone, one value per checkerboard plate
Procedure: as §1

P. aeruginosa PA 107092 [8] = experiment: Time-kill assay; format: cell-based, Pseudomonas aeruginosa; details: monotherapy, 8 μg/mL
Procedure: To study the time-dependent killing effects of the drug combinations, the time-kill kinetics were assessed. The time-kill assay was performed following the 8 μM (2 μg/mL) concentration of avibactam used in the checkerboard assay. […] This concentration also corresponds to the susceptibility breakpoint of both β-lactams.
For the preparation of the bacterial solution, an overnight grown culture was diluted in 0.85% saline solution and adjusted to 0.5 McFarland turbidity. […] The culture tubes were incubated at 37 °C, shaking at 250 rpm. At the appointed time intervals, a 100-μL aliquot was taken from each tube, serially diluted in phosphate-buffered saline (PBS) and plated on LB agar plates. The plates were incubated at 37 °C, and bacterial colonies were counted after 18 h. The bactericidal or bacteriostatic activity is determined based on the decrease in CFU over the time period. Bactericidal activity corresponds to ≥3 log10 reduction in CFU/mL, while bacteriostatic activity corresponds to <3 log10 reduction in CFU/mL.

A. baumannii AB031 = experiment: Checkerboard assay; format: cell-based, Acinetobacter baumannii; details: Acinetobacter baumannii, AB031, agent alone, one value per checkerboard plate
Procedure: as §1

E. coli ATCC 25922 [9] = experiment: microbe, parasite or virus in culture; format: cell-based, Escherichia coli
Procedure: as §1

A. baumannii 92247 [10] = experiment: microbe, parasite or virus in culture; format: cell-based, Acinetobacter baumannii; details: one value per checkerboard plate
Procedure: as §1

A. baumannii 110193 [11] = experiment: microbe, parasite or virus in culture; format: cell-based, Acinetobacter baumannii; details: Acinetobacter baumannii, 110193, agent alone, one value per checkerboard plate
Procedure: as §1

A. baumannii AB027 [12] = experiment: microbe, parasite or virus in culture; format: cell-based, Acinetobacter baumannii; details: Acinetobacter baumannii, AB027, agent alone, one value per checkerboard plate
Procedure: as §1

A. baumannii ATCC 17978 [13] = experiment: microbe, parasite or virus in culture; format: cell-based, Acinetobacter baumannii
Procedure: as §1

P. aeruginosa PA 107092 [14] = format: cell-based, Pseudomonas aeruginosa
Procedure: as §1

P. aeruginosa PA 88949 [15] = format: cell-based, Pseudomonas aeruginosa; details: one value per checkerboard plate
Procedure: as §1

P. aeruginosa PA 109084 [16] = format: cell-based, Pseudomonas aeruginosa
Procedure: as §1

P. aeruginosa PA 86052 [17] = format: cell-based, Pseudomonas aeruginosa; details: one value per checkerboard plate
Procedure: as §1

Hep G2 cells = experiment: Cell viability assay (PrestoBlue); format: cell-based, human; details: 48 h
Procedure: (§2) The cytotoxicity of the guanidinylated polymyxins was evaluated using the cell viability assay as previously described. Human embryonic kidney cells (HEK293) and liver carcinoma cells (Hep G2) were cultured in flasks with Dulbecco’s Modified Eagle’s Medium (DMEM) supplemented with 10% fetal bovine serum. The cells were incubated at 5% CO2 in a humidified atmosphere at 37 °C. Equal volumes of media (50 μL) containing approximately 8000 cells (Hek293) or 5000 cells (HepG2) were added to wells in 96-well plates. The wells containing only media with no cells served as blanks. The plate was incubated for 24 h. Double the final desired concentrations of the agent were subsequently added to each well (experimental and blanks) in a volume of 50 μL. After 48 h incubation, PrestoBlue reagent from Invitrogen (Waltham, MA, USA,) was added to a final concentration of 10% (v/v), and plates were incubated for an additional1 h at 5% CO2. Fluorescence (excitation/emission, 560/590 nm) was measured with a SpectraMax M2 plate reader (Molecular Devices, United States). Values from the blank wells were subtracted from the corresponding wells with cells. The cell viability relative to the controls with a vehicle was calculated. The plots indicate the mean ± standard deviation of two experiments with five samples each. […]

HEK293 cells = experiment: Cell viability assay (PrestoBlue); format: cell-based, human; details: 48 h
Procedure: as §2

A. baumannii 92247 [18] = format: cell-based, Acinetobacter baumannii; details: colistin-resistant isolate
Procedure: (§3) For the preparation of the bacterial solution, overnight grown culture was diluted in 0.85% saline solution, adjusted to 0.5 McFarland turbidity and further diluted in Mueller–Hinton broth for inoculation to a final concentration of 5 × 10^5 colony forming units/mL (CFU/mL). The agents were serially diluted two-fold in a 96-well plate, and equal volumes of bacterial solution were subsequently added to the designated wells. The well consisting of bacterial solution served as the positive control, while the well containing only media served as the negative control. The plate was then incubated at 37 °C for 18 h. After incubation, an Emax Plus microplate reader (Molecular Devices, Union City, CA, USA) was used to measure the optical density (OD) at a wavelength of 590 nm to confirm the turbidity. The antibacterial activity corresponded to the MIC, which is defined as the lowest concentration of the agent necessary to inhibit visible bacterial growth.

A. baumannii 110193 [19] = format: cell-based, Acinetobacter baumannii; details: colistin-susceptible MDR isolate
Procedure: as §3

A. baumannii AB027 [20] = format: cell-based, Acinetobacter baumannii; details: colistin-susceptible MDR isolate
Procedure: as §3

A. baumannii ATCC 17978 [21] = format: cell-based, Acinetobacter baumannii; details: wild-type
Procedure: as §3

A. baumannii LAC-4 = format: cell-based, Acinetobacter baumannii; details: colistin-susceptible MDR isolate
Procedure: as §3

E. cloacae 118564 = format: cell-based, Enterobacter cloacae; details: colistin-resistant isolate
Procedure: as §3

E. cloacae 121187 = format: cell-based, Enterobacter cloacae; details: colistin-resistant isolate
Procedure: as §3

E. coli ATCC 25922 [22] = format: cell-based, Escherichia coli; details: wild-type
Procedure: as §3

E. coli 107115 [23] = format: cell-based, Escherichia coli; details: colistin-susceptible MDR isolate
Procedure: as §3

E. coli 94474 = format: cell-based, Escherichia coli; details: colistin-resistant isolate
Procedure: as §3

E. coli 94393 = format: cell-based, Escherichia coli; details: colistin-resistant isolate
Procedure: as §3

K. pneumoniae 113254 = format: cell-based, Klebsiella pneumoniae; details: colistin-resistant isolate
Procedure: as §3

K. pneumoniae 113250 = format: cell-based, Klebsiella pneumoniae; details: colistin-resistant isolate
Procedure: as §3

P. aeruginosa PA 107092 [24] = experiment: MIC, broth microdilution; format: cell-based, Pseudomonas aeruginosa; details: β-lactamase harboring isolate
Procedure: as §3

P. aeruginosa PA 88949 [25] = experiment: MIC, broth microdilution; format: cell-based, Pseudomonas aeruginosa; details: β-lactamase harboring isolate
Procedure: as §3

P. aeruginosa PA 109084 [26] = experiment: MIC, broth microdilution; format: cell-based, Pseudomonas aeruginosa; details: β-lactamase harboring isolate
Procedure: as §3

P. aeruginosa PA 86052 [27] = experiment: MIC, broth microdilution; format: cell-based, Pseudomonas aeruginosa; details: β-lactamase harboring isolate
Procedure: as §3

[28] = tested on: P. aeruginosa P264-104354; format: cell-based, Pseudomonas aeruginosa; details: colistin-susceptible MDR isolate
Procedure: as §3

P. aeruginosa 114228 [29] = format: cell-based, Pseudomonas aeruginosa; details: colistin-resistant isolate
Procedure: as §3

P. aeruginosa 101243 [30] = format: cell-based, Pseudomonas aeruginosa; details: colistin-resistant isolate
Procedure: as §3

P. aeruginosa P259-96918 [31] = format: cell-based, Pseudomonas aeruginosa; details: colistin-susceptible MDR isolate
Procedure: as §3

P. aeruginosa PAO1 [32] = format: cell-based, Pseudomonas aeruginosa; details: wild-type
Procedure: as §3

[33] = tested on: P. aeruginosa P262-101856; format: cell-based, Pseudomonas aeruginosa; details: colistin-susceptible MDR isolate
Procedure: as §3

[34] = one value per checkerboard plate

- MIC (P. aeruginosa 114228 [1]; Pseudomonas aeruginosa, 114228, agent alone): 4 µg/mL
- MIC alone (P. aeruginosa 114228 [1]; agent alone): 8 µg/mL
- Absolute MIC of antibiotic at 4 μg/mL GCol (P. aeruginosa PAO1 [2]): 0.25 µg/mL
- MIC (P. aeruginosa PAO1 [2]; Pseudomonas aeruginosa, PAO1, 18 h, agent alone, one value per checkerboard plate, read-out: MIC alone): 2 µg/mL
- MIC [3]: 64 µg/mL
- MIC (P. aeruginosa 101243 [4]; Pseudomonas aeruginosa, 101243, agent alone): 64 µg/mL
- MIC alone (P. aeruginosa 101243 [4]; agent alone): 32 µg/mL
- MIC (P. aeruginosa P259-96918 [5]): 512 µg/mL
- MIC ([6]; Pseudomonas aeruginosa, P262101856, agent alone): 8 µg/mL
- MIC alone ([6]; agent alone): 16 µg/mL
- MIC (E. coli 107115 [7]): 512 µg/mL
- MIC (A. baumannii AB031): 32 µg/mL
- Absolute MIC of antibiotic at 2 μg/mL GCol (E. coli ATCC 25922 [9]): 0.063 µg/mL
- Absolute MIC of antibiotic at 2 μg/mL GPMB (E. coli ATCC 25922 [9]): 0.063 µg/mL
- MIC (E. coli ATCC 25922 [9]; Escherichia coli, ATCC25922, 18 h, agent alone, one value per checkerboard plate, read-out: MIC alone): 0.25 µg/mL
- MIC (A. baumannii 92247 [10]; Acinetobacter baumannii, 92247, agent alone): 16 µg/mL
- MIC alone (A. baumannii 92247 [10]; agent alone): 32 µg/mL
- MIC (A. baumannii 110193 [11]): 64 µg/mL
- MIC (A. baumannii AB027 [12]): 2050 µg/mL
- Absolute MIC of antibiotic at 2 μg/mL GCol (A. baumannii ATCC 17978 [13]): 4 µg/mL
- Absolute MIC of antibiotic at 2 μg/mL GPMB (A. baumannii ATCC 17978 [13]): 4 µg/mL
- MIC (A. baumannii ATCC 17978 [13]; Acinetobacter baumannii, ATCC17978, 18 h, agent alone, one value per checkerboard plate, read-out: MIC alone): 16 µg/mL
- MIC antibiotic alone (P. aeruginosa PA 107092 [14]; [34]): 64 µg/mL
- MIC antibiotic alone (P. aeruginosa PA 107092 [14]; plates with 8 μM avibactam): 16 µg/mL and 8 µg/mL
- MIC antibiotic alone (P. aeruginosa PA 88949 [15]): 32 µg/mL
- MIC antibiotic alone (P. aeruginosa PA 109084 [16]; [34]): 64 µg/mL and 128 µg/mL
- MIC antibiotic alone (P. aeruginosa PA 109084 [16]; plates with 8 μM avibactam): 16 µg/mL
- MIC antibiotic alone (P. aeruginosa PA 86052 [17]): 64 µg/mL
Compound: CC(C)(O/N=C(\C(=O)N[C@@H]1C(=O)N2C(C(=O)[O-])=C(C[n+]3ccccc3)CS[C@H]12)c1csc(N)n1)C(=O)O [Ceftazidime]
- log10 increase (bacterial growth) over 24 h (P. aeruginosa PA 107092 [8]): ~ 2 log10

Compound: polymyxin B [PMB]
- concentration up to which Hep G2 cells maintained 100% viability (Hep G2 cells): 25 µM
- concentration up to which HEK293 cells maintained >90% viability (HEK293 cells): 125 µM
- MIC (A. baumannii 92247 [18]): 8 µg/mL
- MIC (A. baumannii 110193 [19]): 1 µg/mL
- MIC (A. baumannii AB027 [20]): 0.25 µg/mL
- MIC (A. baumannii ATCC 17978 [21]): 2 µg/mL
- MIC (A. baumannii LAC-4): 0.5 µg/mL
- MIC (E. cloacae 118564): >64 µg/mL
- MIC (E. cloacae 121187): >64 µg/mL
- MIC (E. coli ATCC 25922 [22]): 1 µg/mL
- MIC (E. coli 107115 [23]): ≤0.125 µg/mL
- MIC (E. coli 94474): 16 µg/mL
- MIC (E. coli 94393): 2 µg/mL
- MIC (K. pneumoniae 113254): >64 µg/mL
- MIC (K. pneumoniae 113250): >64 µg/mL
- MIC (P. aeruginosa PA 107092 [24]): 0.25 µg/mL
- MIC (P. aeruginosa PA 88949 [25]): 0.5 µg/mL
- MIC (P. aeruginosa PA 109084 [26]): 0.25 µg/mL
- MIC (P. aeruginosa PA 86052 [27]): 0.25 µg/mL
- MIC [28]: 2 µg/mL
- MIC (P. aeruginosa 114228 [29]): 64 µg/mL
- MIC (P. aeruginosa 101243 [30]): >128 µg/mL
- MIC (P. aeruginosa P259-96918 [31]): ≤0.0625 µg/mL
- MIC (P. aeruginosa PAO1 [32]): 0.5 µg/mL
- MIC [33]: 0.5 µg/mL
